Assay [1] concerns double-strand linear DNA (20 bp, 40 bp and 60 bp). Nature of the assay: Linear double-strand DNA binding to THZ1 (1% agarose gel). Particulars: 40-160 mM THZ1. As to the method: FIG. 9. Verification of linear DNA binding to THZ1. Double-strand linear DNAs were mixed with different amounts of THZ1 and loaded on 1% agarose gel. The gels were run at 150 V for 20 min, and stained with EtBr.
Binding of DNA to THZ1 was evaluated (FIG. 9). Double-strand linear DNAs (20 bp, 40 bp and 60 bp) were prepared by mixing two complimentary DNAs (as listed below) in 50 mM Tris-HCl, pH 7.5, containing 50 mM NaCl. The reaction mixtures were heated at 90 °C for 5 min, then cool to room temperature. To keep the same base-pair number for each same, the 20 bp DNA was adjusted to 2 mM; 40 bp DNA was adjusted to 1 mM; 60 bp DNA was adjusted to 0.67 mM. Then 40-160 mM THZ1 were added to each sample and loaded on 1% agarose gel.

Another assay relates to MB231 cancer cells. Nature of the assay: Invasion assay (matrigel treated Transwell). It is filed as cell-based. Particulars: 500 nM THZ1; 24 h; p<0.001. How it is done:
(§1) FIGS. 5A-5E. Migration assays for MB231 breast cancer cells. (A) without drug treatment; (B) treatment with THZ1; (C) treatment with nanostructure I; (D) Migration rate of MB231 (migrated cell numbers/control cell numbers×100%) (p<0.001); (E) Invasion rate of MB231 (invaded cell numbers/control cell numbers×100%) (p<0.001).
Invasion assay: To verify whether nanostructure I blocks cells from passing through vessel walls, an invasion assay was performed using a matrigel matrix treated Transwell™ to mimic the vessel wall. […] As a negative control, the invasion of HER1 negative BT474 BC cells were not affected by I (FIG. 6B).

Assay [2] relates to MB231 breast cancer cells. Nature of the assay: Transwell migration assay. It is filed as cell-based. Particulars: 500 nM THZ1; 24 h; p<0.001. How it is done: as §1
Migration assay: To verify whether nanostructure I blocks TNBC cell dissociation from aggregated cell clusters, a Transwell™ migration assay was performed. […] Since nanostructure I contains the same amount of THZ1, the enhanced inhibition of migration by nanostructure I is attributed to its ability to crosslink the cells. As a negative control, the migration of HER1 negative BT474 BC cells were not inhibited by I (FIG. 6A).

Another assay has as its system MDA-MB-231 cells. Kind of assay: Crosslinking assay of HER1 overexpressing TNBC cells. It is filed as cell-based. The note with it: 500 nM free THZ1; 24 h. As to the method: (§2) FIGS. 4A-4H. Crosslinking of BC cells induced by I. MB-231 cells without drug treatment (A, D); with 500 nM THZ1 (B, E); with 10 nM I (C, F) were incubated 24 h and 48 h, respectively. (G) Calculated crosslinking efficiency of MB-231 cells in the presence of 10 nM I in 24 h (p<0.001); (H) Calculated crosslinking efficiency of BT474 cells in the presence of 10 nM I in 24 h.
(§3) Crosslinking assay: Crosslinking of TNBC cells by I was verified using a HER1 overexpressing TNBC cell line (MDA-MB-23146). In the presence of nanostructure I (containing 50 copies of THZ1), the cells were effectively crosslinked to each other through multiple ZHER1-HER1 bindings. […] The crosslinking efficiency was up to 96% in 24 h (FIG. 4G). [Crosslinking efficiency (%)=(cell number without any treatment-non-aggregated cell number)× 100%/(cell number without any treatment). Data were reported as the mean of three independent experiments].

For a further assay, the system named is MB-231 cells. Kind of assay: Growth/death of MB-231 cells after 48 h incubation. It is filed as cell-based. The note with it: 500 nM THZ1. As to the method:
as §2, §3

The subject of the next assay is DNA tetrahedron. Kind of assay: DNA-THZ1 binding assay (G-25 column, UV absorption 220 nm). As to the method: FIGS. 3A-3B. DNA-THZ1 binding assay. (A) Analysis of binding ratio of THZ1 to DNA tetrahedron using UV absorption of THZ1 (220 nm). DNA tetrahedron (0.2 μM) was added different amounts of THZ1 (2-12 μM). The unbound THZ1 was removed through a Sephadex G-25 column for the detection samples. (B) Analysis of THZ1 binding to DNA tetrahedron (TH)-4ZHER1 using 1% agarose gel electrophoresis. The gel was run at 110 V for 1 h, and stained with ethidium bromide. Lanes 1-5, […] DNA tetrahedron (TH)-4ZHER1 incubated with 0-200 folds of THZ1.
DNA-THZ1 binding assay: The DNA binding property of THZ1 was evaluated following our reported method.^43 DNA tetrahedron was incubated with 10-60 fold of THZ1. After purification with G-25 column to remove unbound THZ1, the amount of THZ1 in the DNA tetrahedron was measured using UV absorption at 220 nm. […] Then we used a 1% agarose gel to analyze the binding property for high concentrations of THZ1. […] Thus, we used 50-fold of THZ1 to prepare DNA tetrahedron-4ZHER1-THZ1 nanostructure (I) for following assays.

The test system of another assay is breast cancer. Particulars: breast cancer patients; cited from earlier work.
Another assay concerns TNBC. The note with it: employed as a single agent; cited from earlier work.

For `CN(C)C/C=C/C(=O)Nc1ccc(C(=O)Nc2cccc(Nc3ncc(Cl)c(-c4c[nH]c5ccccc45)n3)c2)cc1` [THZ1], the “binding to double-strand DNA” value in assay [1] is on record as “can bind to double-strand DNA”. Besides, the inhibition of invasion with MB231 cancer cells came to 51%. In addition, the inhibition of migration in assay [2] worked out at 57%. Besides, the cell aggregation entry in the assay on MDA-MB-231 cells is “not aggregated”. Also, the cell growth result in the assay with MB-231 cells is listed as “partially growth inhibited”. In addition, in the assay with DNA tetrahedron (0.2 μM DNA tetrahedron, ratio THZ1/DNA tetrahedron 10 to 50, UV 220 nm after G-25 column), the “concentration of THZ1 in DNA tetrahedron” value is “increased linearly”. Further, the “passage of THZ1/DNA complex through G-25 column” value in the assay with DNA tetrahedron (ratio THZ1/DNA tetrahedron 60) is on record as “part of THZ1/DNA complex did not pass through the G-25 column”.
On to “Patritumab deruxtecan: HER3 antibody drug conjugate”, for which, in the assay with breast cancer, the clinical activity result was “early and clinically meaningful activity”.
On to “panitumumab: Anti-HER1 monoclonal antibody”, for which the “benefit to TNBC patients” value in the assay with TNBC is recorded as “neither antibody confers significant benefit to TNBC patients”.

The values above are taken from patent US20260356984A1, “DNA-AFFIBODY-DRUG NANOSTRUCTURES FOR INHIBITING TRIPLE NEGATIVE BREAST CANCER GROWTH AND METASTASIS” (ARIZONA BOARD OF REGENTS ON BEHALF OF ARIZONA STATE …, priority 2022, published 2026).
